This note sets out measurements from US10196393B2, “JAK inhibitors containing a 4-membered heterocyclic amide” (THERAVANCE BIOPHARMA R&D IP, LLC, priority 2017, dated 2019).

In assay [1] the test system is IL-13 induced pSTAT6 induction in lung tissue. Put plainly: Murine model of IL-13 induced pSTAT6 induction in lung tissue. The note with it: mouse lung, 1 mg/mL 50 μL oral aspiration, IL-13 challenge 4 h after dose, lungs at 5 hours. Format: in vivo. An excerpt:
Assay 4: Murine (Mouse) Model of IL-13 Induced pSTAT6 Induction in Lung Tissue
Il-13 is an important cytokine underlying the pathophysiology of asthma (Kudlacz et al. Eur. J. Pharmacol, 2008, 582,154-161). IL-13 binds to cell surface receptors activating members of the Janus family of kinases (JAK) which then phosphorylate STAT6 and subsequently activates further transcription pathways. In the described model, a dose of IL-13 was delivered locally into the lungs of mice to induce the phosphorylation of STAT6 (pSTAT6) which is then measured as the endpoint.
Adult balb/c mice from Harlan were used in the assay. On the day of study, animals were lightly anesthetized with isoflurane and administered either vehicle or test compound (1 mg/mL, 50 μL total volume over several breaths) via oral aspiration. Animals were placed in lateral recumbency post dose and monitored for full recovery from anesthesia before being returned to their home cage. Four hours later, animals were once again briefly anesthetized and challenged with either vehicle or IL-13 (0.03 μg total dose delivered, 50 μL total volume) via oral aspiration before being monitored for recovery from anesthesia and returned to their home cage. One hour after vehicle or IL-13 administration, lungs were collected for both pSTAT6 detection using an anti-pSTAT6 ELISA (rabbit mAb capture/coating antibody; mouse mAb detection/report antibody: anti-pSTAT6-pY641; secondary antibody: anti-mouse IgG-HRP) and analyzed for total drug concentration as described above in Assay 3.
Selected compounds of the invention were tested in the assay. Activity in the model is evidenced by a decrease in the level of pSTAT6 present in the lungs of treated animals at 5 hours compared to the vehicle treated, IL-13 challenged control animals. The difference between the control animals which were vehicle-treated, IL-13 challenged and the control animals which were vehicle-treated, vehicle challenged dictated the 0% and 100% inhibitory effect, respectively, in any given experiment.

Assay [2] concerns IL-2/anti-CD3 stimulated IFNγ in human PBMCs. Briefly: Cellular JAK potency assay: inhibition of IL-2/anti-CD3 stimulated IFNγ in human PBMCs. Particulars: PBMC, 24 h stimulation, read-out: pIC50, inhibition of IL-2/anti-CD3 stimulated IFNγ (converted). Format: cell-based. An excerpt:
Data are expressed as pIC50 (negative decadic logarithm IC50) values.

Assay [3] concerns IL-2/anti-CD3 stimulated STAT5 phosphorylation in CD4+ T cells. Put plainly: Cellular JAK potency assay: inhibition of IL-2 stimulated pSTAT5 in CD4+ T cells. In kind it is cell-based. The note with it: 0.5 h; CD4+ T cells in human PBMCs, 30 min stimulation; read-out: pIC50, inhibition of IL-2 stimulated pSTAT5 (converted). As for the experimental part:
Assay 9: Cellular JAK Potency Assay: Inhibition of IL-2 Stimulated pSTAT5 in CD4+ T Cells
The potency of the test compound for inhibition of interleukin-2 (IL-2)/anti-CD3 stimulated STAT5 phosphorylation was measured in CD4-positive (CD4+) T cells in human peripheral blood mononuclear cells (PBMCs) isolated from human whole blood (Stanford Blood Center) using flow cytometry. Because IL-2 signals through JAK, this assay provides a measure of JAK cellular potency. […]
(2) After cytokine stimulation, cells were fixed with pre warmed fix solution (200 μL; BD Biosciences) for 10 min at 37° C., 5% CO2, washed twice with DPBS buffer (1 mL, Life Technologies), and resuspended in ice cold Perm Buffer III (1000 μL, BD Biosciences) for 30 min at 4° C. […] After incubation, cells were washed twice in FACS buffer before being analyzed using a LSRII flow cytometer (BD Biosciences). To determine the inhibitory potency of test compounds in response to IL-2/anti-CD3, the median fluorescent intensity (MFI) of pSTAT5 was measured in CD4+ T cells. IC50 values were determined from analysis of the inhibition curves of MFI vs compound concentration. Data are expressed as pIC50 (negative decadic logarithm IC50) values.

Assay [4] concerns IL-6 stimulated STAT3 phosphorylation in CD3+ T cells. Briefly: Cellular JAK potency assay: inhibition of IL-6 stimulated pSTAT3 in CD3+ T cells. Format: cell-based. Particulars: T-cell; CD3+ T cells in human PBMCs; read-out: pIC50, inhibition of IL-6 stimulated pSTAT3 (converted). From the text:
Assay 11: Cellular JAK Potency Assay: Inhibition of IL-6 Stimulated pSTAT3 in CD3+ T Cells
A protocol analogous to that of Assay 10 was used to determine the potency of the test compound for inhibition of interleuken-6 (IL-6) stimulated STAT3 phosphorylation. An Alexa Fluor 647 conjugated anti-pSTAT3 antibody (pY705, Clone 4/P, BD Biosciences) was used to detect STAT3 phosphorylation.

For the molecule `CCc1cc(O)c(F)cc1-c1ccc2c(-c3nc4c([nH]3)CN(C(C)C)[C@H](C(=O)N3CC(N(C)C)C3)C4)n[nH]c2c1` [Example 2, (S)-(3-(dimethylamino)azetidin-1-yl)(2-(6-(2-ethyl-5-fluoro-4-hydroxyphenyl)-1H-indazol-3-yl)-5-isopropyl-4,5,6,7-tetrahydro-3H-imidazo[4,5-c]pyridin-6-yl)methanone], the “pSTAT6 inhibition Assay 4” value in assay [1] is “B (B represents between 40% and 60% inhibition)”. Further, the results for the IC50 in assay [2], in assay [3] and in assay [4] were ~79.4 nM, ~50.1 nM and 63.1 nM, respectively.
